Inhibition data for 5 compounds are collected here from ChEMBL document CHEMBL3132769, “Fragment growing to retain or alter the selectivity of anchored kinase hinge-binding fragments” (Medchemcomm, 2014).

Assay [1] has as its target Protein kinase C delta type (Homo sapiens) (UniProt Q05655). To be noted: 0.1 uM.
Description: Inhibition of human truncated PKC delta expressed in baculovirus assessed as substrate phosphorylation using fluorescence-labelled peptides as substrate at 0.1 uM after 90 mins by microfluidic peptide phosphorylation assay
For assay [2], the system named is Tyrosine-protein kinase ABL1 (Homo sapiens), P00519 [T315I]. To be noted: 0.1 uM.
The target in assay [3] is T1, Testis-specific serine/threonine-protein kinase 1 (Homo sapiens) (UniProt Q9BXA7).
T1 sequence (whole entry): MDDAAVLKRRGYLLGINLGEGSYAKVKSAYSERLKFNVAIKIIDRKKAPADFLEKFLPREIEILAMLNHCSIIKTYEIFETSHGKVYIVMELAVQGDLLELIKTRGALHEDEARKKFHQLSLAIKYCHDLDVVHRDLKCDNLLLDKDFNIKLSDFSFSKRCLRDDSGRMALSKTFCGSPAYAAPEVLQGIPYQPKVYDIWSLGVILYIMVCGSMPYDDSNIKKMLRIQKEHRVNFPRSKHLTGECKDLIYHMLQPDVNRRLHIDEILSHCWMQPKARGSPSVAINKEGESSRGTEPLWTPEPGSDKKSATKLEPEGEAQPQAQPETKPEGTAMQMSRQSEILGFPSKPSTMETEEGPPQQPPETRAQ
Kind of assay: Inhibition of human full length TSSK1 expressed in baculovirus assessed as substrate phosphorylation using fluorescence-labelled peptides as substrate at 9 uM after 90 mins by microfluidic peptide phosphorylation assay.

Assay [4] addresses T2, Protein kinase C epsilon type (Homo sapiens) (UniProt Q02156).
T2 sequence (whole entry): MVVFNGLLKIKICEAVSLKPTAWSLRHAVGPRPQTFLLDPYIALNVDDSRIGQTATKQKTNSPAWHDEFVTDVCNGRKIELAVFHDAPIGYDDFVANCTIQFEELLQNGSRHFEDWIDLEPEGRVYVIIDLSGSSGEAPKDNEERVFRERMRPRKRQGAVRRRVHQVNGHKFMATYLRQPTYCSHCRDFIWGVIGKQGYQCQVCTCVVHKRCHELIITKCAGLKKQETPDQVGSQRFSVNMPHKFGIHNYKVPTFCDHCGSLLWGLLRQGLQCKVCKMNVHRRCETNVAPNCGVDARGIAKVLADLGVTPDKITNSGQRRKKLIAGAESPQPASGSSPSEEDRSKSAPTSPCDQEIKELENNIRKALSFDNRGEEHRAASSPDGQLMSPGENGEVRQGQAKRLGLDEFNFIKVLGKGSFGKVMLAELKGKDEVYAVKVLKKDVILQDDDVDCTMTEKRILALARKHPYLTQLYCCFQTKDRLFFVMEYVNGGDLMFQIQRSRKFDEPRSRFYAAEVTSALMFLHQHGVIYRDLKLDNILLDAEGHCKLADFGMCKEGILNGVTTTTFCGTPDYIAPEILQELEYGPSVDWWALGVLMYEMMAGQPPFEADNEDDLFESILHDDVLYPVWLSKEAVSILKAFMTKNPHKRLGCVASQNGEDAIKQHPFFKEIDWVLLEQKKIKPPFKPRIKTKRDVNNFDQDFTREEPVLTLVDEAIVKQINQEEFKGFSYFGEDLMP
Kind of assay: Inhibition of human truncated PKC epsilon expressed in baculovirus assessed as substrate phosphorylation using fluorescence-labelled peptides as substrate at 9 uM after 90 mins by microfluidic peptide phosphorylation assay.

Assay [5] deals with Tyrosine-protein kinase HCK (Homo sapiens) (UniProt P08631). Nature of the assay: Inhibition of human HCK catalytic domain expressed in baculovirus assessed as substrate phosphorylation using fluorescence-labelled peptides as substrate at 9 uM after 90 mins by microfluidic peptide phosphorylation assay.
Sequence of Tyrosine-protein kinase HCK (Homo sapiens) (P08631 2-526 limits assumed): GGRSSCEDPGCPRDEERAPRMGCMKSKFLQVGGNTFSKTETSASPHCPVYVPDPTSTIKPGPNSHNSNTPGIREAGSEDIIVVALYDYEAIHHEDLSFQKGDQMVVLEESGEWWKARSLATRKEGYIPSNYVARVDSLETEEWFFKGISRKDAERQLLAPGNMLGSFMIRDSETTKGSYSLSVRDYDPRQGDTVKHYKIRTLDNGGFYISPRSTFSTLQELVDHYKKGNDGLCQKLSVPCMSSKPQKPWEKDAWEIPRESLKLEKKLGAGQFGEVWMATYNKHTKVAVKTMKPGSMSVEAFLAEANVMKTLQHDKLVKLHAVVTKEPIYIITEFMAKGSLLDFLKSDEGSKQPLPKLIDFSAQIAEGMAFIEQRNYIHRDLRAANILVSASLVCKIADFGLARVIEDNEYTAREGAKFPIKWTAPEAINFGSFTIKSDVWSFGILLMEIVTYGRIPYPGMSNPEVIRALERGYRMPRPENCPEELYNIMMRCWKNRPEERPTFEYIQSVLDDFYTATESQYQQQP
Assay [6] addresses T3, Calcium/calmodulin-dependent protein kinase type IV (Homo sapiens) (UniProt Q16566).
T3 sequence (whole entry): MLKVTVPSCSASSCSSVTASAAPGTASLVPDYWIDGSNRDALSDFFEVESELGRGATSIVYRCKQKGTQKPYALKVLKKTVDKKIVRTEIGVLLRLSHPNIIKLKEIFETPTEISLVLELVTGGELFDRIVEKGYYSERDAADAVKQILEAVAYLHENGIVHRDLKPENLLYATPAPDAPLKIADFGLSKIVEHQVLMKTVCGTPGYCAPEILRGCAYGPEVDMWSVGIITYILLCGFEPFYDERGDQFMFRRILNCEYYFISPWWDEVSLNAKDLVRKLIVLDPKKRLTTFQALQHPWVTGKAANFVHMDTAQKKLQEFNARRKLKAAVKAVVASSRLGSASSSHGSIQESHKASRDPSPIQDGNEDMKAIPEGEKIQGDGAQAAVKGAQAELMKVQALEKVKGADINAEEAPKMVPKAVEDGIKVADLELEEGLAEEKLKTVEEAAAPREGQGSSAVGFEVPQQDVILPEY
Nature of the assay: Inhibition of human full length CAMK4 expressed in baculovirus assessed as substrate phosphorylation using fluorescence-labelled peptides as substrate at 70 uM after 90 mins by microfluidic peptide phosphorylation assay.

In assay [7] the target is Vascular endothelial growth factor receptor 2 (Homo sapiens) (UniProt P35968). Kind of assay: Inhibition of human KDR cytoplasmic domain expressed in baculovirus assessed as substrate phosphorylation using fluorescence-labelled peptides as substrate at 420 uM after 90 mins by microfluidic peptide phosphorylation assay.
Sequence of Vascular endothelial growth factor receptor 2 (Homo sapiens) (P35968 whole entry, the tested form may be a part): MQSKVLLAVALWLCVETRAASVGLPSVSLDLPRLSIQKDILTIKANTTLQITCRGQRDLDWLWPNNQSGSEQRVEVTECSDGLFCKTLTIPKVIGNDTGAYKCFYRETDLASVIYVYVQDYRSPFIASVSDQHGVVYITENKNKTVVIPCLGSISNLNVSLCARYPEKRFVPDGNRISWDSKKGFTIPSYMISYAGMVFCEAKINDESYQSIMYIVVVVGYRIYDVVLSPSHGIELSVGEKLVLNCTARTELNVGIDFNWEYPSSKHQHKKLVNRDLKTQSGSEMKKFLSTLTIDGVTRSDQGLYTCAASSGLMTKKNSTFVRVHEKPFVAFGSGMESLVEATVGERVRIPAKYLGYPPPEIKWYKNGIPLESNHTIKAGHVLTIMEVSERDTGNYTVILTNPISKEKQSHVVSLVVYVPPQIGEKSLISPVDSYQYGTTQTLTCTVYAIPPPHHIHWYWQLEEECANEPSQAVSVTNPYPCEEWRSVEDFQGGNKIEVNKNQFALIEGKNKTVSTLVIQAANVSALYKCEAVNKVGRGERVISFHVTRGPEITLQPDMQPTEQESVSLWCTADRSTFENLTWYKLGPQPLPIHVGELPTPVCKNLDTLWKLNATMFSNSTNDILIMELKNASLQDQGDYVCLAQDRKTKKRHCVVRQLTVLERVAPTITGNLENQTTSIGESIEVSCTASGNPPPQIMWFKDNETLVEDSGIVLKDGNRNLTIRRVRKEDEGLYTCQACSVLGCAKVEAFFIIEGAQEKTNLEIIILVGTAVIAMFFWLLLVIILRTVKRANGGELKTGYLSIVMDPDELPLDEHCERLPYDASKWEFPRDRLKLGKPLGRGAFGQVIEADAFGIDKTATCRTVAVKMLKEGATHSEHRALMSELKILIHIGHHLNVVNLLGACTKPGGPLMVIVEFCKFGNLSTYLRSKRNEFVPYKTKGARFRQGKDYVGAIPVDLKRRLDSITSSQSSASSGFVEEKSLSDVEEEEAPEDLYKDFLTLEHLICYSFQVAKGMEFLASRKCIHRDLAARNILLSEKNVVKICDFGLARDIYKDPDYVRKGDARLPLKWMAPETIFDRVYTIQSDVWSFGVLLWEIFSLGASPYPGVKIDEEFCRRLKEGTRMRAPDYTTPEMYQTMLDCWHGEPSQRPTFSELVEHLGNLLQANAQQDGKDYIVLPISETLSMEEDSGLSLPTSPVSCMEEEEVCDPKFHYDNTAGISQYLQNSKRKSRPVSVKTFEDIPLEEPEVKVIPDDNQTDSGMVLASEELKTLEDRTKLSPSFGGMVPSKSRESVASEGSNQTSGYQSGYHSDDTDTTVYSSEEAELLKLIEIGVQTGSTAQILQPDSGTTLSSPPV
The target of assay [8] is Ribosomal protein S6 kinase alpha-3 (Homo sapiens) (UniProt P51812). Nature of the assay: Inhibition of human full length RSK2 expressed in baculovirus assessed as substrate phosphorylation using fluorescence-labelled peptides as substrate at 420 uM after 90 mins by microfluidic peptide phosphorylation assay.
Sequence of Ribosomal protein S6 kinase alpha-3 (Homo sapiens) (P51812 whole entry, the tested form may be a part): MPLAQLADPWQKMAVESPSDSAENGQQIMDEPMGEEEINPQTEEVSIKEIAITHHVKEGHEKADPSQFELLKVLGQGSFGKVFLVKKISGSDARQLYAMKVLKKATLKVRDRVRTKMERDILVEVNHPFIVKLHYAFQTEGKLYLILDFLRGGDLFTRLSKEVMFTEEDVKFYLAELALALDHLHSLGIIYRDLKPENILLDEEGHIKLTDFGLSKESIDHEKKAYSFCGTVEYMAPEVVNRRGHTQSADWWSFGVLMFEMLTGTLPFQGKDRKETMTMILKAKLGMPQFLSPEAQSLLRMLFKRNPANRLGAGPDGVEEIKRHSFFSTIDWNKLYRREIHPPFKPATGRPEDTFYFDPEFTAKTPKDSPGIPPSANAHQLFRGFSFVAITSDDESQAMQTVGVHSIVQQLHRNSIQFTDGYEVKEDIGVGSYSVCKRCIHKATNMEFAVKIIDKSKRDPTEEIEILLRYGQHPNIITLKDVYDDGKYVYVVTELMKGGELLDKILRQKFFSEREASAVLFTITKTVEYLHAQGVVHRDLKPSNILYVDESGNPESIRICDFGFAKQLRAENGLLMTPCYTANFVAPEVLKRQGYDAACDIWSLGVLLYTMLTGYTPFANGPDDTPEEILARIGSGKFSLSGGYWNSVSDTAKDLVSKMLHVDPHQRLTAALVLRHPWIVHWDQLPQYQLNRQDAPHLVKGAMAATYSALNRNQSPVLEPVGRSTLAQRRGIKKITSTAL
Assay [9] deals with Mitogen-activated protein kinase kinase kinase kinase 4 (Homo sapiens) (UniProt O95819). Kind of assay: Inhibition of human HGK catalytic domain expressed in baculovirus assessed as substrate phosphorylation using fluorescence-labelled peptides as substrate at 1000 uM after 90 mins by microfluidic peptide phosphorylation assay.
Sequence of Mitogen-activated protein kinase kinase kinase kinase 4 (Homo sapiens) (O95819 2-1239 limits assumed): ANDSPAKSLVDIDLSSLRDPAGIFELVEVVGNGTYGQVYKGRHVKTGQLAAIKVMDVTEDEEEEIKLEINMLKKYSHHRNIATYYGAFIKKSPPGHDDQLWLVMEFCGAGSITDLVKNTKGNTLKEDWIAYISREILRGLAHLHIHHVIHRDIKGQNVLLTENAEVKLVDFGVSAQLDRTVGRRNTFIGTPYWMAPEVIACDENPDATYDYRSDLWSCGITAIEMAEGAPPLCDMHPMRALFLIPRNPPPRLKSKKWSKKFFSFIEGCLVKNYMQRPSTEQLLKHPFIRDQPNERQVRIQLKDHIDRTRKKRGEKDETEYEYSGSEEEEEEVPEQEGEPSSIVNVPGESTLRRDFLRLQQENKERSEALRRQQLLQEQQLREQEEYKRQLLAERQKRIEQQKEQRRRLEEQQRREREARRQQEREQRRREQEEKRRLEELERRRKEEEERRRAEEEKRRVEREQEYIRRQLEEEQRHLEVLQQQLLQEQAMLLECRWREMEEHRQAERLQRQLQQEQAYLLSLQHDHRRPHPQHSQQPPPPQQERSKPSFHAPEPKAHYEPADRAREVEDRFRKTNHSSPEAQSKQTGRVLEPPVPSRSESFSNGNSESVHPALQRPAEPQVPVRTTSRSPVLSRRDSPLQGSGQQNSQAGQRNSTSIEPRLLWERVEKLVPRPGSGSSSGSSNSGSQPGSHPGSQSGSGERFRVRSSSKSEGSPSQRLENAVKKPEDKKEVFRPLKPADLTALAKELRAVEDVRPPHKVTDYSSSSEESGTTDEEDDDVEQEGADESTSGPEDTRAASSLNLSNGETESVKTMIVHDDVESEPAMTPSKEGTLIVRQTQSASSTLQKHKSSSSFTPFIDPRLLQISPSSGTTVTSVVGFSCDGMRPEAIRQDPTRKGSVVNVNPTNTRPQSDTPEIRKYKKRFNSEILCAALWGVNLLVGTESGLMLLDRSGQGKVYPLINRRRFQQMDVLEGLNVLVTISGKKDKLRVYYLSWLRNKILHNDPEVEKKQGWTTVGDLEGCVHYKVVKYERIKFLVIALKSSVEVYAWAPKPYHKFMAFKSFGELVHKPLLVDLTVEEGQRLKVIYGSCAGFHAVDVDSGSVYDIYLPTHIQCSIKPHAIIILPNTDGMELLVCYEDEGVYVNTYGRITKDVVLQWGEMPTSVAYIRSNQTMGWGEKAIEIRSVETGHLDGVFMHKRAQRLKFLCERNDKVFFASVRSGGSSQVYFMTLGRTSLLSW

The structures appear in SMILES notation.

Sequence of Protein kinase C delta type (Homo sapiens) (Q05655 whole entry, looked up): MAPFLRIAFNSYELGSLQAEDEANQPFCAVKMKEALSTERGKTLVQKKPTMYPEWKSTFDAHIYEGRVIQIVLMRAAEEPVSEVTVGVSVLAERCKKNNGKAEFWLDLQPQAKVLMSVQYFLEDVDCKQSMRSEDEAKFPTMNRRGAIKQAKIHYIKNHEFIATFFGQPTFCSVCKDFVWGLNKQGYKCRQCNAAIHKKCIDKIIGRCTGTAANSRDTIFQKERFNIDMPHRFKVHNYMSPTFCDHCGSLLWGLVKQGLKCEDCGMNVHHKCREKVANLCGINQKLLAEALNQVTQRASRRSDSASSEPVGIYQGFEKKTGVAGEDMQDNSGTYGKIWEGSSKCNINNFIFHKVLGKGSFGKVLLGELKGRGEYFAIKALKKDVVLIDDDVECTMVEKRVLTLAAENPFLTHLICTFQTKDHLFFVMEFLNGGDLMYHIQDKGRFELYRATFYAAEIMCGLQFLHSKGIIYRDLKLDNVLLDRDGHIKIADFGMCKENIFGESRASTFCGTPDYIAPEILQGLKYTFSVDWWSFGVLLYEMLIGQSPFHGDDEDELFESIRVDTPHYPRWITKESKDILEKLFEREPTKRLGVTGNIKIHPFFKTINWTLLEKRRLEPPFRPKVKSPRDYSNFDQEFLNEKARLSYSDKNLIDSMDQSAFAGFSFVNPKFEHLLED

As to `C[C@H](CN(C)C)Oc1nc(Nc2cc3cccc(Cl)c3cn2)cnc1C#N`, the inhibition in assay [1] and in assay [2] was 0% each time.
On to `NCC1CN(c2ncnc3[nH]c4cnccc4c23)CCO1` (centres undefined), for which the inhibition (in general, how much of the control response was suppressed) is 41.5% in assay [3], 14.5% in assay [4] and 29% in assay [5].
As for `CNCc1ccc(-c2ncnc3[nH]cnc23)cc1`, in assay [6], the inhibition came to 77.5%.
Turning to `c1nc(N2CCOCC2)c2nc[nH]c2n1`, the results for the inhibition in assay [7] and in [8] were 95.5% and 95%, respectively.
`c1cnc2[nH]ccc2c1`: the inhibition in [9] came out at 90%.
